Calls of active or inactive are those of the source. No rule for the calls is given here.
Key:
[1] = tested on: S. cerevisiae wild-type background strain growth inhibition; assay: growth inhibition of vps1Δ apl2Δ yeast, dose response, post-Golgi transport modulator project, S. cerevisiae, background strain comparison (AID 788); settings: S. cerevisiae vps1Δ apl2Δ growth inhibition, dose response; measured here: wild-type background strain growth
[2] = tested on: S. cerevisiae vps1Δ apl2Δ growth inhibition, dose response; assay: as above

| Structure (SMILES) | IC50 [1] | IC50 [2] |
| --- | --- | --- |
| O=c1c2c3c(sc2ncn1/N=C/c1ccc([N+](=O)[O-])o1)CCCC3 | 1.59 µM | 1.8 µM (inactive) |
| Cc1cc(C(C)(C)C)ccc1OCCN1CCCC1 | > 10 µM | 17.1 µM |
| COc1ccc(Nc2nc(N)nc(CSc3nnc(N)s3)n2)cc1 | > 10 µM | > 10 µM (inactive) |
| CCOC(=O)NC(Nc1ccc(S(N)(=O)=O)cc1)(C(=O)OCC)C(F)(F)F (stereo not drawn) | > 10 µM | > 10 µM (inactive) |
| CCCCC1(CCCC)C(=O)NC(=Nc2cccc(C)c2)NC1=O | > 10 µM | > 10 µM (inactive) |
| COc1ccc(N2CCN(C(=O)CCNS(=O)(=O)c3ccc(Br)s3)CC2)cc1 | > 10 µM | > 10 µM (inactive) |
| O=C(N/N=C/c1ccc([N+](=O)[O-])o1)c1cc(-c2cccc(Br)c2)nc2ccccc12 | 4.65 µM | 1.02 µM |
| CCOc1ccc(-c2[nH]ncc2Oc2ccccc2OCC)c(O)c1 | 16 µM | 7.98 µM |
| COc1cccc(NC(=O)c2ccc(CN3CCN(c4ccccc4)CC3)cc2)c1 | > 10 µM | > 10 µM (inactive) |
| O=c1c2cccc3c2c(nn1CN1CCOCC1)-c1ccccc1-3 | > 10 µM | > 10 µM (inactive) |
| N=c1c2c(-c3ccccc3)c(-c3ccccc3)n(Cc3ccco3)c2ncn1Cc1ccco1 | 21.5 µM | 16 µM |
| Nc1ccc(Oc2ccc3nc(-c4ccccc4)c(-c4ccccc4)nc3c2)cc1 | 1.21 µM | 1.2 µM (inactive) |
| Cc1ccc(S(=O)(=O)N(CC(=O)N2CCC(C(N)=O)CC2)c2cccc(C(F)(F)F)c2)cc1 | > 10 µM | > 10 µM (inactive) |
| O=C(Nc1nc(-c2ccccn2)cs1)c1ncc(Cl)c(Cl)c1Cl | 13.3 µM | 4.41 µM |
| OC(c1ccc(Cl)cc1Cl)C(Cc1cccnc1)n1cncn1 (stereo not drawn) | > 10 µM | > 10 µM (inactive) |
| COc1cccc(NC(=O)C2CCCN2C(=O)OCc2ccccc2)c1 (stereo not drawn) | > 10 µM | > 10 µM (inactive) |
| CCOCCCNC(=O)c1cc2sc(Cl)cc2n1CC | > 10 µM | > 10 µM (inactive) |
| CCC(C)(C)n1nnnc1C(c1cc2cc3c(cc2[nH]c1=O)OCO3)N1CCN(C)CC1 (stereo not drawn) | > 10 µM | > 10 µM (inactive) |
| CCOc1nc(SCCOc2ccccc2)nc(N(C)C)n1 | – | > 10 µM (inactive) |
| Cc1cc([N+](=O)[O-])c(-c2ccc(/C=N/n3cnnc3)o2)cc1Cl | 0.134 µM | 0.39 µM (inactive) |
| Cc1ccc(C2N(c3ccc(Cl)c(Cl)c3)C(=O)C3CCCN32)o1 (stereo not drawn) | > 10 µM | > 10 µM (inactive) |
| c1ccc2c(c1)oc1c(Nc3ccc(CN4CCOCC4)cc3)ncnc12 | > 10 µM | – |
| Cc1cc(NCCCN2CCOCC2)n2ncc(-c3ccc(Cl)cc3)c2n1 | > 10 µM | – |
| O=S1(=O)C=C(Sc2nc3ccccc3s2)c2ccccc21 | – | > 10 µM (inactive) |
| CCCCCCOc1ccc(CN2CCN(CCO)CC2)cc1 | – | 5.19 µM |
| N#Cc1ccccc1Cn1cc(C(=O)c2cccs2)c2ccccc21 | – | > 10 µM (inactive) |
| CC(C)c1ccc(C(=O)CSc2n[nH]c(-c3ccncc3)n2)cc1 | – | 5.64 µM |

| Structure (SMILES) | IC50 [1] | IC50 [2] |
| --- | --- | --- |
| O=S(=O)(Cc1ccccc1Cl)N1CCN(Cc2ccc3c(c2)OCO3)CC1 | – | 9.91 µM |
| Cc1cccc(-c2nnc(-c3cccc(NC(=O)Cc4cccs4)c3)o2)c1 | 15.2 µM | – |
| COc1ccc(OCCSc2nnc3sc4ccccc4n23)cc1 | – | > 10 µM (inactive) |
| O=C(Nc1nnc(-c2ccc(Cl)cc2)o1)c1ccccc1Br | 13.1 µM | – |
| CCOc1cc(/C=C\[N+](=O)[O-])ccc1OCC(=O)Nc1ccccc1C | > 10 µM | – |
| CCCCC(=O)Nc1nc(C)c(-c2csc(Nc3ccc(Cl)cc3)n2)s1 | 6.26 µM | – |
| Cc1[nH]nc(N=CC2=C(O)CC(C)(C)CC2=O)c1-c1ccc(Cl)cc1 | – | > 10 µM (inactive) |
| N=c1c2c(-c3ccccc3)c(-c3ccccc3)n(Cc3ccco3)c2ncn1Cc1ccccc1 | – | 18.9 µM |
| CC12CCC(c3c(C(=O)Nc4nccs4)nn(-c4ccccc4)c31)C2(C)C (stereo not drawn) | – | > 10 µM (inactive) |
| CCOc1ccc(NC(=O)N(C2CCCCC2)C(C)c2cccnc2)cc1 (stereo not drawn) | – | 15 µM |
| O=C(NCC(c1cccnc1)N1CCN(c2ccc(F)cc2)CC1)OCc1ccccc1 (stereo not drawn) | – | 22.9 µM |
| O=C(CN1CCN(c2ccccn2)CC1)Nc1ccc(Oc2ccccc2)cc1 | – | > 10 µM (inactive) |
| Cc1nnc(-c2cccc(Br)c2)c2cn(-c3ccccc3)nc12 | > 10 µM | – |
| O=C(Nc1ccccc1)C1=C(O)CC(c2ccco2)CC1=Nc1ccccc1 (stereo not drawn) | > 10 µM | – |
| O=C1C=C(c2ccccc2)C(=O)N1Nc1ccccc1 | – | 20 µM |
| Cc1c(Cl)c([N+](=O)[O-])nn1Cc1ccc(C(=O)N/N=C\c2cccc(Br)c2)o1 | > 10 µM | – |
| O=C(OCn1ncc(Br)c(Br)c1=O)c1ccccc1Cl | – | 21 µM |
| CC(c1nnc(SCn2nnc3ccccc3c2=O)n1-c1ccc(Cl)cc1)N(C)C (stereo not drawn) | – | 2.16 µM |
| O=C(NCC1COc2ccccc2O1)c1ccc(Cl)cc1 (stereo not drawn) | – | 1.32 µM |
| CC1CCN(S(=O)(=O)c2ccc(NC(=O)CCN3C(=O)c4ccccc4C3=O)cc2)CC1 | – | > 10 µM (inactive) |
| C=C(C)COc1ccc(-c2ncncc2Oc2ccc(OC)cc2)c(O)c1 | > 10 µM | – |
| CCOC(=O)C1=C(N)N2C(=O)C(C)SC2=C(C(=O)OC)C1c1ccccc1OC (stereo not drawn) | 0.163 µM | – |
| Cc1ccc(C(=O)Nc2ccc(Cc3ccncc3)cc2)cc1[N+](=O)[O-] | – | 23.4 µM |
| O=[N+]([O-])c1cc(Cl)cc(/C=N\Nc2ccccn2)c1O | – | 9.68 µM |
| CC1CC(C)CN(CC(C)(C)NS(=O)(=O)c2ccc(Cl)cc2)C1 (stereo not drawn) | > 10 µM | – |
| CC1CCC(C(C)C)C(OCC(O)CN2CCN(Cc3ccccc3)CC2)C1 (stereo not drawn) | – | 4.77 µM |

From PubChem BioAssay AID788 (SRMLSC, 2007)
